According to PubChem BioAssay (NCI):
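Assay format: 96-well plates, 48-hour exposure. Abbreviation: GI50, concentration required for 50% inhibition of growth. Definition used: TGI = concentration required for complete inhibition of growth.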

Tests used:
Assay in all cases: inhibition of tumour cell growth, NCI panel, 48 h
NCI-H522 lung = tested on: NCI-H522 lung
HCC-2998 colon = tested on: HCC-2998 colon
SF-268 CNS = tested on: SF-268 CNS
TK-10 renal = tested on: TK-10 renal
SK-MEL-5 melanoma = tested on: SK-MEL-5 melanoma
OVCAR-4 ovarian = tested on: OVCAR-4 ovarian
NCI/ADR-RES ovarian = tested on: NCI/ADR-RES ovarian
A498 renal = tested on: A498 renal
MDA-MB-231 breast = tested on: MDA-MB-231 breast
RXF 393 renal = tested on: RXF 393 renal
K-562 leukemia = tested on: K-562 leukemia
RPMI-8226 leukemia = tested on: RPMI-8226 leukemia
SN12C renal = tested on: SN12C renal
UACC-62 melanoma = tested on: UACC-62 melanoma
SW-620 colon = tested on: SW-620 colon
HOP-62 NSCLC = tested on: HOP-62 NSCLC
U251 CNS = tested on: U251 CNS
HCT-15 colon = tested on: HCT-15 colon
786-0 renal = tested on: 786-0 renal
SNB-19 CNS = tested on: SNB-19 CNS
IGROV1 ovarian = tested on: IGROV1 ovarian
HOP-92 NSCLC = tested on: HOP-92 NSCLC
DU-145 prostate = tested on: DU-145 prostate
CCRF-CEM leukemia = tested on: CCRF-CEM leukemia
HT29 colon = tested on: HT29 colon
NCI-H226 lung = tested on: NCI-H226 lung
HL-60(TB) leukemia = tested on: HL-60(TB) leukemia
HS 578T breast = tested on: HS 578T breast
PC-3 prostate = tested on: PC-3 prostate
MDA-MB-435 = tested on: MDA-MB-435
UACC-257 melanoma = tested on: UACC-257 melanoma
SR leukemia = tested on: SR leukemia
SF-539 CNS = tested on: SF-539 CNS
BT-549 breast = tested on: BT-549 breast
OVCAR-8 ovarian = tested on: OVCAR-8 ovarian
UO-31 renal = tested on: UO-31 renal
NCI-H460 lung = tested on: NCI-H460 lung
T-47D breast = tested on: T-47D breast
SF-295 CNS = tested on: SF-295 CNS
ACHN renal = tested on: ACHN renal
MCF7 breast = tested on: MCF7 breast
OVCAR-5 ovarian = tested on: OVCAR-5 ovarian
COLO 205 colon = tested on: COLO 205 colon
CAKI-1 renal = tested on: CAKI-1 renal
SK-MEL-28 melanoma = tested on: SK-MEL-28 melanoma
M14 melanoma = tested on: M14 melanoma
HCT-116 colon = tested on: HCT-116 colon
LOX IMVI melanoma = tested on: LOX IMVI melanoma
SK-MEL-2 melanoma = tested on: SK-MEL-2 melanoma
SK-OV-3 ovarian = tested on: SK-OV-3 ovarian
EKVX NSCLC = tested on: EKVX NSCLC
KM12 colon = tested on: KM12 colon
SNB-75 CNS = tested on: SNB-75 CNS
A549 NSCLC = tested on: A549 NSCLC
OVCAR-3 ovarian = tested on: OVCAR-3 ovarian
MOLT-4 leukemia = tested on: MOLT-4 leukemia
MALME-3M melanoma = tested on: MALME-3M melanoma

`CC(=O)N(O)CCCCCNC(=O)CCC(=O)N(O)CCCCCNC(=O)CCC(=O)N(O)CCCCCN(CCCCCCCCCC[P+](c1ccccc1)(c1ccccc1)c1ccccc1)CCCCCCCCCC[P+](c1ccccc1)(c1ccccc1)c1ccccc1` showed a GI50 (NCI-H522 lung) of 2.52 µM, a TGI (NCI-H522 lung) of 10.7 µM and a GI50 (HCC-2998 colon) of 3.45 µM. The TGI (HCC-2998 colon) was 13.9 µM, the GI50 (SF-268 CNS) was 4.6 µM and the TGI (SF-268 CNS) was 26.4 µM. For the same molecule, the GI50 (TK-10 renal) was 9 µM, the TGI (TK-10 renal) was 34.2 µM and the GI50 (SK-MEL-5 melanoma) was 3.65 µM. For the same molecule, the TGI (SK-MEL-5 melanoma) was 15.8 µM, the GI50 (OVCAR-4 ovarian) was 2.73 µM and the TGI (OVCAR-4 ovarian) was 17.5 µM. The GI50 (NCI/ADR-RES ovarian) was 31.3 µM, the TGI (NCI/ADR-RES ovarian) was greater than 100 µM and the GI50 (A498 renal) was 18.9 µM. The TGI (A498 renal) was 81.2 µM, the GI50 (MDA-MB-231 breast) was 4.13 µM and the TGI (MDA-MB-231 breast) was 19.6 µM. For the same molecule, the GI50 (RXF 393 renal) was 3.3 µM, the TGI (RXF 393 renal) was 14.5 µM and the GI50 (K-562 leukemia) was 1.47 µM. For the same molecule, the TGI (K-562 leukemia) was 15.4 µM, the GI50 (RPMI-8226 leukemia) was 2.12 µM and the TGI (RPMI-8226 leukemia) was 9.63 µM. For the same molecule, the GI50 (SN12C renal) was 2.88 µM, the TGI (SN12C renal) was 11.1 µM and the GI50 (UACC-62 melanoma) was 3.35 µM. The TGI (UACC-62 melanoma) was 15.3 µM, the GI50 (SW-620 colon) was 4.18 µM and the TGI (SW-620 colon) was 16.5 µM. The GI50 (HOP-62 NSCLC) was 3.46 µM, the TGI (HOP-62 NSCLC) was 16.1 µM and the GI50 (U251 CNS) was 2 µM. For the same molecule, the TGI (U251 CNS) was 13 µM, the GI50 (HCT-15 colon) was 14.6 µM and the TGI (HCT-15 colon) was 43.9 µM. The GI50 (786-0 renal) was 7.1 µM, the TGI (786-0 renal) was 26.6 µM and the GI50 (SNB-19 CNS) was 3.09 µM. It also gave a TGI (SNB-19 CNS) of 14.1 µM, a GI50 (IGROV1 ovarian) of 2.83 µM and a TGI (IGROV1 ovarian) of 16.8 µM. It also gave a GI50 (HOP-92 NSCLC) of 1.49 µM, a TGI (HOP-92 NSCLC) of 6.82 µM and a GI50 (DU-145 prostate) of 5.21 µM. For the same molecule, the TGI (DU-145 prostate) was 25.4 µM, the GI50 (CCRF-CEM leukemia) was 2.5 µM and the TGI (CCRF-CEM leukemia) was 23.4 µM. The GI50 (HT29 colon) was 2.84 µM, the TGI (HT29 colon) was 11.4 µM and the GI50 (NCI-H226 lung) was 5.02 µM. It also gave a TGI (NCI-H226 lung) of 23.9 µM, a GI50 (HL-60(TB) leukemia) of 2.04 µM and a TGI (HL-60(TB) leukemia) of 6.01 µM. It also gave a GI50 (HS 578T breast) of 3.77 µM, a TGI (HS 578T breast) of 30.8 µM and a GI50 (PC-3 prostate) of 2.95 µM. The TGI (PC-3 prostate) was 13.4 µM, the GI50 (MDA-MB-435) was 2.76 µM and the TGI (MDA-MB-435) was 11.3 µM. For the same molecule, the GI50 (UACC-257 melanoma) was 2.66 µM, the TGI (UACC-257 melanoma) was 10 µM and the GI50 (SR leukemia) was 2.71 µM. For the same molecule, the TGI (SR leukemia) was 11.2 µM, the GI50 (SF-539 CNS) was 2.8 µM and the TGI (SF-539 CNS) was 10.4 µM. The GI50 (BT-549 breast) was 2.15 µM, the TGI (BT-549 breast) was 9 µM and the GI50 (OVCAR-8 ovarian) was 3.07 µM. It also gave a TGI (OVCAR-8 ovarian) of 14.8 µM, a GI50 (UO-31 renal) of 16 µM and a TGI (UO-31 renal) greater than 100 µM. It also gave a GI50 (NCI-H460 lung) of 2.38 µM, a TGI (NCI-H460 lung) of 11.5 µM and a GI50 (T-47D breast) of 1.78 µM. For the same molecule, the TGI (T-47D breast) was 8.85 µM, the GI50 (SF-295 CNS) was 2.99 µM and the TGI (SF-295 CNS) was 14.1 µM. The GI50 (ACHN renal) was 16.1 µM, the TGI (ACHN renal) was 69.9 µM and the GI50 (MCF7 breast) was 2.29 µM. It also gave a TGI (MCF7 breast) of 10.8 µM, a GI50 (OVCAR-5 ovarian) of 3.46 µM and a TGI (OVCAR-5 ovarian) of 15.5 µM. The GI50 (COLO 205 colon) was 1.58 µM, the TGI (COLO 205 colon) was 3.55 µM and the GI50 (CAKI-1 renal) was 10.8 µM. For the same molecule, the TGI (CAKI-1 renal) was 24.4 µM, the GI50 (SK-MEL-28 melanoma) was 3.62 µM and the TGI (SK-MEL-28 melanoma) was 18.3 µM. The GI50 (M14 melanoma) was 4.11 µM, the TGI (M14 melanoma) was 21.9 µM and the GI50 (HCT-116 colon) was 2.93 µM. For the same molecule, the TGI (HCT-116 colon) was 23.8 µM, the GI50 (LOX IMVI melanoma) was 3.21 µM and the TGI (LOX IMVI melanoma) was 10.2 µM. The GI50 (SK-MEL-2 melanoma) was 2.61 µM, the TGI (SK-MEL-2 melanoma) was 7.86 µM and the GI50 (SK-OV-3 ovarian) was 2.3 µM. For the same molecule, the TGI (SK-OV-3 ovarian) was 6.15 µM, the GI50 (EKVX NSCLC) was 1.35 µM and the TGI (EKVX NSCLC) was 13 µM. It also gave a GI50 (KM12 colon) of 3.43 µM, a TGI (KM12 colon) of 21.1 µM and a GI50 (SNB-75 CNS) of 2.69 µM. For the same molecule, the TGI (SNB-75 CNS) was 11.4 µM, the GI50 (A549 NSCLC) was 3.47 µM and the TGI (A549 NSCLC) was greater than 100 µM. It also gave a GI50 (OVCAR-3 ovarian) of 4.22 µM, a TGI (OVCAR-3 ovarian) of 23.2 µM and a GI50 (MOLT-4 leukemia) of 3.52 µM. It also gave a TGI (MOLT-4 leukemia) of 18.9 µM, a GI50 (MALME-3M melanoma) of 4.11 µM and a TGI (MALME-3M melanoma) of 20.3 µM.
